Experimental data published in ChEMBL document CHEMBL6178015, “Discovery of a Novel Serine-Targeting Covalent Inhibitor against HCES2A for Treating Drug-induced Diarrhea and Ulcerative Colitis” (J Med Chem, 2025).
Active and inactive are the calls of the source. The calls are words filed in the database; no cut-off is given here.

Tests used:
[1] = Inhibition of human CES2A using fluorescein diacetate as substrate preincubated for 3 mins followed by substrate addition and measured after 30 mins by fluorescence microplate reader
[2] = Inhibition of human CES1A using NLMe as substrate preincubated for 3 mins followed by substrate addition and measured after 20 mins by chemiluminescence analysis
Homo sapiens = species on record: Homo sapiens; assay: Selectivity index, ratio of IC50 for inhibition of human CES1A to IC50 for inhibition of human CES2A
Mus musculus [3] = assay: Antiinflammatory activity against DSS-induced ulcerative colitis mouse model assessed as goblet cell loss at 700 mg/kg,IG administered once daily 7 days by AB-PAS staining based analysis; type: functional, organism-based; conditions: time 7.0 day
Mus musculus [4] = assay: Antiinflammatory activity against DSS-induced ulcerative colitis mouse model assessed as restoration of colon histology at 700 mg/kg,IG administered once daily 7 days by AB-PAS staining based analysis; type: functional, organism-based; conditions: time 7.0 day
Mus musculus [5] = assay: Antiinflammatory activity against DSS-induced ulcerative colitis mouse model assessed as epithelial damage at 700 mg/kg,IG administered once daily 7 days by AB-PAS staining based analysis; type: functional, organism-based; conditions: time 7.0 day

| Structure (SMILES) | IC50 [1] [nM] | further results |
| --- | --- | --- |
| C=CCOC(=O)Nc1ccc(C)cc1-c1cc2c(C(=O)CCCCCC)cccc2o1 | 383 |  |
| CCCCCCCCC(=O)c1cccc2oc(-c3cc(OC)ccc3OC(=O)N(C)C)cc12 | 0.189 | IC50 [2]: 239 nM; Ratio IC50 (Homo sapiens): 1260 |
| CN(C)C(=O)C(CCN1CCC(O)(c2ccc(Cl)cc2)CC1)(c1ccccc1)c1ccccc1 [LOPERAMIDE] | 351 |  |
| CCCCCCC(=O)c1cccc2oc(-c3cc(OC)ccc3OC(=O)N(C)C)cc12 | 0.509 | IC50 [2]: 22.9 nM; Ratio IC50 (Homo sapiens): 44.8 |
| CCCCCCC(=O)c1cccc2oc(-c3cc(C)ccc3NC(=O)OCCCC)cc12 | 623 |  |
| CCCCCCCCC(=O)c1cccc2oc(-c3cc(OC)ccc3OC(=O)N(CC)CC)cc12 | 6.37 |  |
| CCCCCCC(=O)c1cccc2oc(-c3ccccc3NC(=O)OCc3ccccc3)cc12 | 616 |  |
| CCCCCCC(=O)c1cccc2oc(-c3ccccc3N)cc12 | 944 |  |
| O=C(O)c1cc(/N=N/c2ccc(S(=O)(=O)Nc3ccccn3)cc2)ccc1O |  | Activity (Mus musculus [3]): inactive; Activity (Mus musculus [4]): Active; Activity (Mus musculus [5]): inactive |
| CCCCCCC(=O)c1cccc2oc(-c3cc(C)ccc3NC(=O)OCC(CC)CCCC)cc12 (stereo unspecified) | 4260 |  |
| CCCCCCC(=O)c1c(C)ccc2oc(-c3cc(OC)ccc3O)cc12 | 1.55 |  |
| CCCC(=O)c1cccc2oc(-c3cc(C)ccc3N)cc12 | 3110 |  |
| CCCCCCC(=O)c1cccc2oc(-c3cc(OC)ccc3OC(=O)N3CCCC3)cc12 | 0.249 | IC50 [2]: 5.65 nM; Ratio IC50 (Homo sapiens): 22.7 |
| CCCC(=O)c1cccc2oc(-c3cc(C)ccc3NC(=O)OCCCl)cc12 | 983 |  |
| CCCCCCC(=O)c1cccc2oc(-c3cc(C)ccc3N)cc12 | 612 |  |
| CCCCCCC(=O)c1cccc2oc(-c3ccccc3NC(=O)OCCCl)cc12 | 56.6 | IC50 [2]: > 10000 nM; Ratio IC50 (Homo sapiens): > 176 |
